Data as given in patent publication US20040043959A1, “Combination therapies for treating methylthioadenosine phosphorylase deficient cells” (priority 2002, published 2004).

Target: T1, Human MTAP (Homo sapiens, UniProt Q13126)
T1 construct: six-histidine tag (His6) (N); made in house; host or cells: E. coli BL21 DE3
T1 sequence (Q13126 1-283): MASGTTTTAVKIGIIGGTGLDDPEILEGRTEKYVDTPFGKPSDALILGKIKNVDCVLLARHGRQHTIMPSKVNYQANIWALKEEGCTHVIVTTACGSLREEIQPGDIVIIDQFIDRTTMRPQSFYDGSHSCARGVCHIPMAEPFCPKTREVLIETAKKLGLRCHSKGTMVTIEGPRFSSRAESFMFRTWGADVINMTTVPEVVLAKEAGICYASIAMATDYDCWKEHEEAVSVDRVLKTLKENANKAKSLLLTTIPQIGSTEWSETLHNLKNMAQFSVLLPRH
Assay: MTAP substrate assay, coupled spectrophotometric (adenine, xanthine oxidase)
Assay type: biochemical
Conditions: 2 nM MTAP; for activity at 50 µM: 10 min, compound 50 uM, relative to MTA at 50 uM, read-out: MT-A—50: initial velocity as a percentage of the initial velocity with MTA as substrate; for MT-A—10: initial velocity as a percentage of the initial velocity with MTA as substrate: compound 10 uM, relative to MTA at 10 uM
Procedure: An enzymatic assay to determine the activity of MTAP against a given substrate was performed. Human MTAP containing an N-terminal six-histidine tag was expressed in E. coli BL21 DE3 cells. The protein was purified to homogeneity by Ni2+ affinity chromatography. Enzymatic activity was measured using a coupled spectrophotometric assay designed to monitor the reaction product adenine (Savarese, T. M., Crabtree, G. W., and Parks, R. E. Jr., (1980) Biochem. Pharmacol. 30, 189-199). Various concentrations of the indicated 5′-deoxymethylthio adenosine (MTA) or substrate were incubated in assay buffer (40 mM potassium phosphate buffer, 1 mM, and DTT 0.8 units/ml xanthine oxidase coupling enzyme) for 5 minutes at 37° C. The reaction was initiated by the addition of MTAP. The exact concentration of enzyme used varied for each substrate tested and ranged from 2 nM to 500 nM. Activity as a function of enzyme concentration was determined for each substrate tested to ensure that the appropriate enzyme concentration was used. Activity was detected by continuous monitoring of absorbance at 305 nm for 10 minutes (ΔE=15,500 M^−1).
Library compounds (10 and 50 uM) were tested using the assay described above with 2 nM MTAP enzyme. The resultant initial velocities are reported as a percentage of the initial velocity observed when MTA is the substrate. MTA controls, 10 and 50 uM concentrations, were run on each plate alongside the library compounds.

Row | Structure (SMILES) | activity at 50 µM | MT-A—10: initial velocity as a percentage of the initial velocity with MTA as substrate
1 | Nc1ncnc2c1ncn2[C@@H]1O[C@H](CSc2nc3ccccc3c(=O)[nH]2)[C@@H](O)[C@H]1O [2(G)(50), 2-({[(2S, 3S, 4R, 5R)-2-(6-amino-9H-purin-9-yl)-dihydroxytetrahydro-furan-2-yl]methyl}thio)-quinazolin-4-(3H)-one] | 37% | 9%
2 | Nc1ccc2[nH]c(SC[C@H]3O[C@@H](n4cnc5c(N)ncnc54)[C@H](O)[C@@H]3O)nc2c1 [2(G)(51), (2R, 3R, 4S, 5S)-2-(6-amino-9H-purin-9-yl)-5-{[(5-amino-1H-benzoimidazol-2-yl)thio]methyl}tetrahydro-furan-3,4-diol] | 36% | 16%
3 | Cc1nnc(SC[C@H]2O[C@@H](n3cnc4c(N)ncnc43)[C@H](O)[C@@H]2O)s1 [2(G)(52), (2R, 3R, 4S, 5S)-2-(6-amino-9H-purin-9-yl)-5-{[(5-methyl-1,3,4-thiadiazol-2-yl)thio]methyl}tetrahydro-furan-3,4-diol] | 23% | 19%
4 | Nc1ncnc2c1ncn2[C@@H]1O[C@H](CSc2nc[nH]n2)[C@@H](O)[C@H]1O [2(G)(53), (2R, 3R, 4S, 5S)-2-(6-amino-9H-purin-9-yl)-5-[(1H-1,2,4-triazol-3-ylthio)methyl]tetrahydro-furan-3,4-diol] | 57% | 58%
5 | COC(=O)CSC[C@H]1O[C@@H](n2cnc3c(N)ncnc32)[C@H](O)[C@@H]1O [2(G)(54), methyl ({[(2S, 3S, 4R, 5R)-5-(6-amino-9H-purin-9-yl)-3,4-dihydroxy-tetrahydrofuran-2-yl]methyl}thio)acetate] | 44% | 36%
6 | Nc1ncnc(SC[C@H]2O[C@@H](n3cnc4c(N)ncnc43)[C@H](O)[C@@H]2O)n1 [2(G)(55), (2R, 3R, 4S, 5S)-2-(6-amino-9H-purin-9-yl)-5-{[(4-amino-1,3,5-triazin-2-yl)thio]methyl}tetra-hydrofuran-3,4-diol] | 47% | 43%
7 | CNC(=O)CSC[C@H]1O[C@@H](n2cnc3c(N)ncnc32)[C@H](O)[C@@H]1O [2(G)(56), 2-({[(2S, 3S, 4R, 5R)-5-(6-amino-9H-purin-9-yl)-dihydroxytetrahydrofuran-2-yl]methyl}thio)-N-methylacetamide] | 10% | 6%
8 | Nc1ncnc2c1ncn2[C@@H]1O[C@H](CSCCCCO)[C@@H](O)[C@H]1O [2(G)(57)] | 45% | 31%
9 | Nc1ncnc2c1ncn2[C@@H]1O[C@H](CSCCc2ccncc2)[C@@H](O)[C@H]1O [2(G)(58), (2R, 3R, 4S, 5S)-2-(6-amino-9H-purin-9-yl)-5-{[(2-pyridin-4-ylethyl)thio]methyl}tetra-hydrofuran-3,4-diol] | 47% | 38%
10 | Nc1cccnc1SC[C@H]1O[C@@H](n2cnc3c(N)ncnc32)[C@H](O)[C@@H]1O [2(G)(59), (2R, 3R, 4S, 5S)-2-(6-amino-9H-purin-9-yl)-5-{[(3-aminopyridin-2-yl)thio]methyl}tetra-hydrofuran-3,4-diol] | 47% | 18%
11 | NC(=O)c1cccnc1SC[C@H]1O[C@@H](n2cnc3c(N)ncnc32)[C@H](O)[C@@H]1O [2(G)(60), 2-({[(2S, 3S, 4R, 5R)-5-(6-amino-9H-purin-9-yl)-3,4-dihydroxytetrahydro-furan-2-yl]methyl}thio)-nicotinamide] | 8% | 4%
12 | Nc1ncnc2c1ncn2[C@@H]1O[C@H](CSCCc2cnccn2)[C@@H](O)[C@H]1O [2(G)(61)] | 20% | 15%
13 | CC1OCCC1SC[C@H]1O[C@@H](n2cnc3c(N)ncnc32)[C@H](O)[C@@H]1O (stereo partly drawn) [2(G)(62), (2R, 3R, 4S, 5S)-2-(6-amino-9H-purin-9-yl)-5-{[(2-methyltetra-hydrofuran-3-yl)thio]methyl}tetrahydrofuran-3,4-diol] | 7% | 6%
14 | Cn1c(CO)cnc1SC[C@H]1O[C@@H](n2cnc3c(N)ncnc32)[C@H](O)[C@@H]1O [2(G)(63), (2R, 3R, 4S, 5S)-2-(6-amino-9H-purin-9-yl)-5-({[5-(hydroxymethyl)-1-methyl-1H-imidazol-2-yl]thio}methyl)tetra-hydrofuran-3,4-diol] | 5% | 5%
15 | Nc1ncnc2c1ncn2[C@@H]1O[C@H](CSc2nc(O)c3cc[nH]c3n2)[C@@H](O)[C@H]1O [2(G)(64), (2R, 3R, 4S, 5S)-2-(6-amino-9H-purin-9-yl)-5-{[(4-hydroxy-7H-pyrrolo[2,3-d]pyrimidin-2-yl)thio]methyl}tetra-hydrofuran-3,4-diol] | 48% | 48%
16 | CC(C)n1c(O)nnc1SC[C@H]1O[C@@H](n2cnc3c(N)ncnc32)[C@H](O)[C@@H]1O [2(G)(65), (2R, 3R, 4S, 5S)-2-(6-amino-9H-purin-9-yl)-5-{[(5-hydroxy-4-isopropyl-4H-1,2,4-triazol-3-yl)thio]methyl}tetrahydrofuran-3,4-diol] | 4% | 5%
17 | CN(C)Cc1nnc(SC[C@H]2O[C@@H](n3cnc4c(N)ncnc43)[C@H](O)[C@@H]2O)n1C [2(G)(66), (2R, 3R, 4S, 5S)-2-(6-amino-9H-purin-9-yl)-5-[({5-[(dimethylamino)-methyl]-4-methyl-4H-1,2,4-triazol-3-yl}thio)methyl]tetrahydro-furan-3,4-diol] | 6% | 6%
18 | Cc1nnc(SC[C@H]2O[C@@H](n3cnc4c(N)ncnc43)[C@H](O)[C@@H]2O)n1C [2(G)(67), (2R, 3R, 4S, 5S)-2-(6-amino-9H-purin-9-yl)-5-{[(4,5-dimethyl-4H-1,2,4-triazol-3-yl)thio]methyl}tetra-hydrofuran-3,4-diol] | 47% | 45%
19 | CCC(C)SC[C@H]1O[C@@H](n2cnc3c(N)ncnc32)[C@H](O)[C@@H]1O (stereo partly drawn) [2(G)(68), (2R, 3R, 4S, 5S)-2-(6-amino-9H-purin-9-yl)-5-[(sec-butylthio)methyl]tetra-hydrofuran-3,4-diol] | 45% | 42%
20 | Nc1ncnc2c1ncn2[C@@H]1O[C@H](CSc2cnccn2)[C@@H](O)[C@H]1O [2(G)(69), (2R, 3R, 4S, 5S)-2-(6-amino-9H-purin-9-yl)-5-[(pyrazin-2-ylthio)methyl]tetrahydro-furan-3,4-diol] | 40% | 31%
21 | Nc1ncnc2c1ncn2[C@@H]1O[C@H](CSc2ccccc2Br)[C@@H](O)[C@H]1O [2(G)(70), (2R, 3R, 4S, 5S)-2-(6-amino-9H-purin-9-yl)-5-{[(2-bromophenyl)-thio]methyl}tetrahydro-furan-3,4-diol] | 3% | 6%
